Where two headings read alike, the source gives them in different places.
What was measured:
[1] = Solubility (as observed in cell culture media / stated); type: physicochemical; conditions: cell culture media
BRC4–RAD51 interaction = target: T1, BRC4–RAD51 interaction (Homo sapiens, UniProt Q06609); assay: Competitive biochemical ELISA assay (biotinylated BRC4 peptide vs RAD51); type: binding
T1 construct: purchased Creative Biomart (RAD51); Life Technologies (BRC4 peptide)
T1 sequence (Q06609 1-339): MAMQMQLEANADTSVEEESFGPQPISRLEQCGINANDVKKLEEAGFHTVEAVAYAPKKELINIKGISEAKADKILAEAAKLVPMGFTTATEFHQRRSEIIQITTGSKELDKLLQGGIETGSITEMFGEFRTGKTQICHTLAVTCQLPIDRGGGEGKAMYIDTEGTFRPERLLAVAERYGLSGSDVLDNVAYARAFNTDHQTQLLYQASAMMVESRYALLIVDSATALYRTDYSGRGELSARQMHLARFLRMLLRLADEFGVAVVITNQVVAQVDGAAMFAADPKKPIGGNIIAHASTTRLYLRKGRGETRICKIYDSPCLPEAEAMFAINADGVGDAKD
Experimental: To investigate the mechanism of action of the new dihydroquinolone pyrazoline derivatives, different biological assays were performed. As a primary screening, the ability of compounds 5d–57d to inhibit RAD51-BRCA2 interaction was investigated with a competitive biochemical ELISA assay against the parent compound 4d (Table 1). This assay is effective in evaluating the ability of new molecules to compete with BRC4 to bind to RAD51.[30] […] 18d–21d, 23d, 25d, 30d, and 31d were active at micromolar range, all very similar to the initial hit. […] The replacement of the aromatic ring A in combination with the substitution of the pyrazoline nitrogen with either propionyl or acetyl chain yielded compounds 33d–51d. […] As expected for PPI disruptors, the SARs of the new series of dihydroquinolone pyrazoline were rather complex to rationalize, with many cliffs and spikes that were difficult to understand. […] Accordingly, 4d, 12d, 18d, 20d–23d, 30d, 31d, 33d–36d, 39d, 45d, and 49d were submitted to cell-based study (Table 2).
Competitive ELISA screening assay using biotinylated BRC4 peptide to disrupt the BRC4–RAD51 interaction was performed by modifying the method described by Rajendra et al.[33] BRC4-biotinylated peptide (N-term biotin-[…] from Life Technologies) was used to coat 384-well plates (Nunc). After washing with PBS containing 0.05% Tween-20 (PBST) and blocking with the solution BSA 1% /PBST, overnight hybridization with human RAD51 protein (NP_002866 Creative Biomart, NY) was performed. Test compounds were added in dose response from 0.01 to 100 μM in triplicate with constant DMSO 1%. Antibody raised against RAD51 (Millipore) and HRP-secondary antibody staining to develop the 3,3′,5,5′-tetramethylbenzidine signal (Sigma) quenched with 1 M HCl was used as the assay readout. Colorimetric measure was read on a Victor5 (PerkinElmer) plate reader. BRC4 and Rad51 were included in the assay as positive control. Results were analyzed by using GraphPad software.

BxPC3 cells = assay: Cell viability assay (CellTiter-Glo), association with olaparib; type: cell-based, human; conditions: BxPC3; for olaparib association (increase of antiproliferative effect of olaparib): one or two doses in the range of the ELISA EC50, concentration not given
From the text: (§1) Our working hypothesis is that compounds disrupting RAD51-BRCA2 interaction should affect HR repair and increase the efficacy of PARPi in treating breast, ovarian, and pancreatic cancer. For its clinical relevance, pancreatic adenocarcinoma was selected as our final model for cell-based experiments, and BxPC3 cells were selected for a straightforward comparison with the previously reported triazole derivatives.[30],[31] BxPC3 is derived from a human adenocarcinoma that expresses fully functional BRCA2.[38] As shown in Table 2 and according to the rationale of our hypothesis, our preliminary screening consisted of verifying the efficacy of compounds in inhibiting cell HR and/or in increasing the antiproliferative effect of olaparib. […] HR activity was assessed by evaluating the recombination rate between two transfected plasmids, using a commercially available assay. […] As for the emissucinic acid-containing compounds (4d, 12d, 18d, 20d–23d, 30d, 31d), one of the reasons for their lower potency in cells might be the general poor permeability, likely related to the ionizable acid moiety. […] We then characterized 35d in additional biophysical and cell-based experiments.
Cell viability was assessed with the CellTiter-Glo luminescent cell viability assay from Promega. For this experiment, 1 × 10^4 cells in 200 μL of culture medium were seeded into each well of a 96-multiwell white body plate and allowed to adhere overnight. After 72 h incubation in the presence of olaparib (10 μM) and the RAD51-BRCA2 disruptors alone or in combination, the plate was allowed to equilibrate at room temperature for 30 min and the CellTiter-Glo reactive was directly added to each well. The plate was kept on a shaker for 10 min to induce cell lysis, and its luminescence was measured with a Fluoroskan Ascent FL reader (Labsystems).

[2] = test system: homologous recombination in BxPC3 cells; assay: Homologous recombination assay (two-plasmid recombination, real-time PCR); type: cell-based, human; conditions: for HR inhibition (in words): BxPC3, one or two doses in the range of the ELISA EC50, NDD = not dose-dependent
From the text: as §1
Homologous recombination (HR) was assessed by using a commercially available assay (Norgen). This assay is based on cell transfection with two plasmids that, upon cell entry, recombine. The efficiency of HR can be assessed by real-time PCR, using primer mixtures included in the assay kit. Different primer mixtures allow one to discriminate between the original plasmid backbones and their recombination product.
BxPC3 cells (2 × 10^5 per well) were seeded in a 24-well plate and allowed to adhere overnight. Co-transfection with the two plasmids was performed in Lipofectamine 2000 (Invitrogen) according to the manufacturer’s instructions. During transfection (5 h), cells were exposed to different doses of RAD51-BRCA2 disruptors, dissolved in RPMI in the presence of 0.6% DMSO. After washing with PBS, cells were harvested, and DNA was isolated using Illustra Tissue and Cell Genomic Prep Mini Spin kit (GE Healthcare). Sample concentration was measured using an ONDA Nano Genius photometer. The efficiency of HR was assessed by real-time PCR, using 25 ng of template, the primer mixtures included in the assay kit and following the protocol indicated by the manufacturer. Data analysis was based on the ΔΔCt method: [recombination product/backbone plasmids]^treated versus [recombination product/backbone plasmids]^control.

[3] = Table 2, compounds selected for cell-based study, read-out: EC50 ELISA
[4] = competition with BRC4 for RAD51, triplicate, ± standard deviation, NA = not active, racemic mixtures unless enantiomer named, read-out: EC50 (μM) on ELISA assay

## CCn1ncc2cc(-c3ccc(C4CC(c5c(-c6ccccc6)c6cc(Cl)ccc6[nH]c5=O)=NN4C(=O)CCC(=O)O)cc3)ccc21 (stereo not drawn) [Compound 30d, 4-(3-(6-Chloro-2-oxo-4-phenyl-1,2-dihydroquinolin-3-yl)-5-(4-(1-ethyl-1H-indazol-5-yl)phenyl)-4,5-dihydro-1H-pyrazol-1-yl)-4-oxobutanoic Acid]
[1]
  solubility in cell culture media: poor solubility
BRC4–RAD51 interaction; [3]
  EC50: 15 ± 3 µM
BRC4–RAD51 interaction; [4]
  EC50: 15 ± 3 µM

## CCn1ccc2cc(C3CC(c4c(-c5ccccc5)c5cc(Cl)ccc5[nH]c4=O)=NN3C(=O)CCC(=O)O)ccc21 (stereo not drawn) [Compound 23d, 4-(3-(6-Chloro-2-oxo-4-phenyl-1,2-dihydroquinolin-3-yl)-5-(1-ethyl-1H-indol-5-yl)-4,5-dihydro-1H-pyrazol-1-yl)-4-oxobutanoic Acid]
BRC4–RAD51 interaction; [3]
  EC50: 10 ± 2 µM
BRC4–RAD51 interaction; [4]
  EC50: 10 ± 2 µM
BxPC3 cells
  olaparib association (increase of antiproliferative effect of olaparib): olaparib association = not present

## O=C(O)CCC(=O)N1N=C(c2c(-c3ccccc3)c3cc(Cl)ccc3[nH]c2=O)CC1c1ccc(-c2ccc(F)cc2)cc1 (stereo not drawn) [Compound 18d, 4-(3-(6-Chloro-2-oxo-4-phenyl-1,2-dihydroquinolin-3-yl)-5-(4′-fluoro-[1,1′-biphenyl]-4-yl)-4,5-dihydro-1H-pyrazol-1-yl)-4-oxobutanoic Acid]
BRC4–RAD51 interaction; [3]
  EC50: 13 ± 1 µM
BRC4–RAD51 interaction; [4]
  EC50: 13 ± 1 µM
BxPC3 cells
  olaparib association (increase of antiproliferative effect of olaparib): olaparib association = not present

## CCCn1ncc2cc(C3CC(c4c(-c5ccccc5)c5cc(Cl)ccc5[nH]c4=O)=NN3C(C)=O)ccc21 (stereo not drawn) [Compound 49d, 3-(1-Acetyl-5-(1-propyl-1H-indazol-5-yl)-4,5-dihydro-1H-pyrazol-3-yl)-6-chloro-4-phenylquinolin-2(1H)-one]
[2]
  HR inhibition (in words): HR inhibition = not present
BRC4–RAD51 interaction; [3]
  EC50: 0.95 ± 0.05 µM
BRC4–RAD51 interaction; [4]
  EC50: 0.95 ± 0.05 µM
BxPC3 cells
  olaparib association (increase of antiproliferative effect of olaparib): olaparib association = not present

## CC(=O)N1N=C(c2c(-c3ccccc3)c3cc(Cl)ccc3[nH]c2=O)CC1c1ccc2c(ccn2C)c1 (stereo not drawn) [Compound 45d, 3-(1-Acetyl-5-(1-methyl-1H-indol-5-yl)-4,5-dihydro-1H-pyrazol-3-yl)-6-chloro-4-phenylquinolin-2(1H)-one]
[2]
  HR inhibition (in words): HR inhibition = not present
BRC4–RAD51 interaction; [3]
  EC50: 18 ± 1 µM
BRC4–RAD51 interaction; [4]
  EC50: 18 ± 1 µM

## CCn1cc2cc(-c3ccc(C4CC(c5c(-c6ccccc6)c6cc(Cl)ccc6[nH]c5=O)=NN4C(=O)CCC(=O)O)cc3)ccc2n1 (stereo not drawn) [Compound 31d, 4-(3-(6-Chloro-2-oxo-4-phenyl-1,2-dihydroquinolin-3-yl)-5-(4-(2-ethyl-2H-indazol-5-yl)phenyl)-4,5-dihydro-1H-pyrazol-1-yl)-4-oxobutanoic Acid]
[2]
  HR inhibition (in words): HR inhibition = NDD ^b
BRC4–RAD51 interaction; [3]
  EC50: 17 ± 4 µM
BRC4–RAD51 interaction; [4]
  EC50: 17 ± 4 µM
BxPC3 cells; at 20 μM
  olaparib association: olaparib association = present at 20 μM

## CC(=O)N1N=C(c2c(-c3ccccc3)c3cc(Cl)ccc3[nH]c2=O)CC1c1ccc(Cl)cc1 (stereo not drawn) [Compound 36d, 3-(1-Acetyl-5-(4-chlorophenyl)-4,5-dihydro-1H-pyrazol-3-yl)-6-chloro-4-phenylquinolin-2(1H)-one]
[2]; Homo sapiens, BXPC-3, 10 μM, BxPC3, 5 h during plasmid transfection
  inhibition at 10 µM: 24%
BRC4–RAD51 interaction; [3]
  EC50: 10 ± 0.7 µM
BRC4–RAD51 interaction; [4]
  EC50: 10 ± 0.7 µM
BxPC3 cells
  olaparib association (increase of antiproliferative effect of olaparib): olaparib association = not present

## Cn1ccc2cc(C3CC(c4c(-c5ccccc5)c5cc(Cl)ccc5[nH]c4=O)=NN3C(=O)CCC(=O)O)ccc21 (stereo not drawn) [Compound 22d, 4-(3-(6-Chloro-2-oxo-4-phenyl-1,2-dihydroquinolin-3-yl)-5-(1-methyl-1H-indol-5-yl)-4,5-dihydro-1H-pyrazol-1-yl)-4-oxobutanoic Acid]
[2]
  HR inhibition (in words): HR inhibition = not present
BRC4–RAD51 interaction; [3]
  EC50: 2 ± 0.5 µM
BRC4–RAD51 interaction; [4]
  EC50: 2 ± 0.5 µM
BxPC3 cells; at 5 μM
  olaparib association: olaparib association = not present at 5 μM

## CCC(=O)N1N=C(c2c(-c3ccccc3)c3cc(Cl)ccc3[nH]c2=O)CC1c1ccc(Cl)cc1 (stereo not drawn) [Compound 33d, 6-Chloro-3-(5-(4-chlorophenyl)-1-propionyl-4,5-dihydro-1H-pyrazol-3-yl)-4-phenylquinolin-2(1H)-one]
[2]
  HR inhibition (in words): HR inhibition = not present
BRC4–RAD51 interaction; [3]
  EC50: 8 ± 2 µM
BRC4–RAD51 interaction; [4]
  EC50: 8 ± 2 µM
BxPC3 cells
  olaparib association (increase of antiproliferative effect of olaparib): olaparib association = not present

## O=C(O)CCC(=O)N1N=C(c2c(-c3ccccc3)c3cc(Cl)ccc3[nH]c2=O)CC1c1ccc(Br)cc1 (stereo not drawn) [Compound 12d, 4-(5-(4-Bromophenyl)-3-(6-chloro-2-oxo-4-phenyl-1,2-dihydroquinolin-3-yl)-4,5-dihydro-1H-pyrazol-1-yl)-4-oxobutanoic Acid]
[2]
  HR inhibition (in words): HR inhibition = not present
BRC4–RAD51 interaction; [3]
  EC50: 16 ± 2 µM
BRC4–RAD51 interaction; [4]
  EC50: 16 ± 2 µM
BxPC3 cells
  olaparib association (increase of antiproliferative effect of olaparib): olaparib association = not present

## O=C(O)CCC(=O)N1N=C(c2c(-c3ccccc3)c3cc(Cl)ccc3[nH]c2=O)CC1c1ccc(-c2ccc(Br)cc2)cc1 (stereo not drawn) [Compound 20d]
BRC4–RAD51 interaction; [3]
  EC50: 20 ± 2 µM
BRC4–RAD51 interaction; [4]
  EC50: 20 ± 2 µM
BxPC3 cells
  olaparib association (increase of antiproliferative effect of olaparib): olaparib association = not present

## COc1ccc(-c2ccc(C3CC(c4c(-c5ccccc5)c5cc(Cl)ccc5[nH]c4=O)=NN3C(=O)CCC(=O)O)cc2)cc1 (stereo not drawn) [Compound 21d, 4-(3-(6-Chloro-2-oxo-4-phenyl-1,2-dihydroquinolin-3-yl)-5-(4′-methoxy-[1,1′-biphenyl]-4-yl)-4,5-dihydro-1H-pyrazol-1-yl)-4-oxobutanoic Acid]
[1]
  solubility in cell culture media: poor solubility
BRC4–RAD51 interaction; [3]
  EC50: 20 ± 4 µM
BRC4–RAD51 interaction; [4]
  EC50: 20 ± 4 µM

## CC(=O)N1N=C(c2c(-c3ccccc3)c3cc(Cl)ccc3[nH]c2=O)CC1c1ccc(C(C)(C)C)cc1 (stereo not drawn) [Compound 39d, 3-(1-Acetyl-5-(4-(tert-butyl)phenyl)-4,5-dihydro-1H-pyrazol-3-yl)-6-chloro-4-phenylquinolin-2(1H)-one]
[2]
  HR inhibition (in words): HR inhibition = NDD ^b
BRC4–RAD51 interaction; [3]
  EC50: 15 ± 4 µM
BRC4–RAD51 interaction; [4]
  EC50: 15 ± 4 µM
